Data published in patent publication US9796700B2 (Celgene CAR LLC, priority 2013, dated 2017).

What follows are compounds tested against Erk1 (Homo sapiens (Human), UniProt P27361) (assay: Protein Mass Modification Assay (intact protein MALDI)).
Erk1, sequence (P27361 whole entry, looked up): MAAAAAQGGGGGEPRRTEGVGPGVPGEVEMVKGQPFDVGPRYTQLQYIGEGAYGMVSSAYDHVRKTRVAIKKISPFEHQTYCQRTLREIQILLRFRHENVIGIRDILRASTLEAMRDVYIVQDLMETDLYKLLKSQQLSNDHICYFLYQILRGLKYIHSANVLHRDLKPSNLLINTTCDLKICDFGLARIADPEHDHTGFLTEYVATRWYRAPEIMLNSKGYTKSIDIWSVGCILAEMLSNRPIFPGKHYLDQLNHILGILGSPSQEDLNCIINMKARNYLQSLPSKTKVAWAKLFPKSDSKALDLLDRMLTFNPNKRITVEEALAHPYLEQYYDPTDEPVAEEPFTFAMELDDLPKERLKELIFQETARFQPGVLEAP
Format: binding
Procedure: Protein Mass Modification Assay
Intact protein: Erk1 from Millipore (Cat. No. 14-439) was incubated for 60 min. at room temperature with a 10-fold excess of test compound to protein. 4 μL aliquots of the resulting mixture were diluted with 15 μL of 0.2% TFA prior to micro C4 ZipTipping directly onto the MALDI target using sinapinic acid as the desorption matrix (10 mg/ml in 0.1% TFA:Acetonitrile 50:50, v/v). The centroid mass of the target protein in the control sample was compared with the centroid mass of the target protein incubated with compound. A shift in the centroid mass of the treated protein compared to the untreated protein was divided by the molecular weight of the compound. This number corresponds to the percentage of modified protein after one hour incubation. Results from this assay are reported in Table A under the column “ERK1 Mass Mod (%).”
In the case of `C=CC(=O)Nc1ccccc1Nc1nc(Nc2ccc(N(CC)C(C)=O)cc2C(F)(F)F)ncc1Cl` [Compound I-320], the “ERK1 Mass Mod (%)” value is reported as “F (provided a mass modification of 31-69%)”.
For `C=CC(=O)Nc1cc(OC)ccc1Nc1nc(Nc2ccc(N3CCC[C@@H]3CO)cc2C#N)ncc1Cl` [Compound I-181, (R)—N-(2-((5-chloro-2-((2-cyano-4-(2-(hydroxymethyl)pyrrolidin-1-yl)phenyl)amino)pyrimidin-4-yl)amino)-5-methoxyphenyl)acrylamide], the “ERK1 Mass Mod (%)” value was “E (provided a mass modification of ≧70%)”.
In the case of `C=CC(=O)Nc1ccccc1Nc1nc(N[C@H]2CCCN(C(=O)[C@@H](O)CO)C2)ncc1C(F)(F)F` [Compound I-50, N-(2-((2-(((S)-1-((S)-2,3-Dihydroxypropanoyl)piperidin-3-yl)amino)-5-(trifluoromethyl)pyrimidin-4-yl)amino)phenyl)acrylamide], the “ERK1 Mass Mod (%)” value is reported as “E (provided a mass modification of ≧70%)”.
In the case of `C=CC(=O)Nc1ccccc1Nc1nc(Nc2cc(C(N)=O)c(OCCCNC(=O)CCCC(=O)NCCCOCCOCCOCCCNC(=O)CCCC[C@@H]3SC[C@@H]4NC(=O)N[C@@H]43)cc2C)ncc1Cl` [Compound I-299, N^1-(3-(4-((4-((2-acrylamidophenyl)amino)-5-chloropyrimidin-2-yl)amino)-2-carbamoyl-5-methylphenoxy)propyl)-N^5-(15-oxo-19-((3aS,4S,6aR)-2-oxohexahydro-1H-thieno[3,4-d]imidazol-4-yl)-4,7,10-trioxa-14-azanonadecyl)glutaramide], the “ERK1 Mass Mod (%)” value is reported as “E (provided a mass modification of ≧70%)”.
With `C=CC(=O)Nc1ccccc1Nc1nc(Nc2ccc(N(CCCNC(=O)OC(C)(C)C)C(C)=O)cc2C(F)(F)F)ncc1Cl` [Compound I-169, tert-butyl (3-(N-(4-((4-((2-acrylamidophenyl)amino)-5-chloropyrimidin-2-yl)amino)-3-(trifluoromethyl)phenyl)acetamido)propyl)carbamate] the “ERK1 Mass Mod (%)” value was “E (provided a mass modification of ≧70%)”.
For `C#CC(=O)Nc1cc(C)ccc1Nc1nc(Nc2cc(OC)ncc2C)ncc1C(F)(F)F` [Compound I-345, N-(2-((2-((2-methoxy-5-methylpyridin-4-yl)amino)-5-(trifluoromethyl)pyrimidin-4-yl)amino)-5-methylphenyl)propiolamide], the “ERK1 Mass Mod (%)” value was “E (provided a mass modification of ≧70%)”.
With `C=C(C)S(=O)(=O)Nc1cc(F)ccc1Nc1nc(Nc2cc(C(C)=O)ccc2C)ncc1C(F)(F)F` [Compound I-99, N-(2-((2-((5-acetyl-2-methylphenyl)amino)-5-(trifluoromethyl)pyrimidin-4-yl)amino)-5-fluorophenyl)prop-1-ene-2-sulfonamide] the “ERK1 Mass Mod (%)” value was “G (proived a mass modification ≦30%)”.
In the case of `O=C(CCCl)Nc1ccccc1Nc1nc(N[C@H]2CCCN(C(=O)CO)C2)ncc1C(F)(F)F` [Compound I-22, (S)-3-Chloro-N-(2-((2-((1-(2-hydroxyacetyl)piperidin-3-yl)amino)-5-(trifluoromethyl)pyrimidin-4-yl)amino)phenyl)propanamide], the “ERK1 Mass Mod (%)” value is reported as “G (proived a mass modification ≦30%)”.
`C=CC(=O)Nc1ccccc1Nc1nc(Nc2ccnnc2)ncc1C(F)(F)F` [Compound I-293, N-(2-((2-(Pyridazin-4-ylamino)-5-(trifluoromethyl)pyrimidin-4-yl)amino)phenyl) acrylamide] was tested, and the “ERK1 Mass Mod (%)” value was “E (provided a mass modification of ≧70%)”.
`C=CC(=O)Nc1ccccc1Nc1nc(Nc2cc(C(N)=O)ccc2C)ncc1C` [Compound I-224, 3-(4-(2-acrylamidophenylamino)-5-methylpyrimidin-2-ylamino)-4-methyl benzamide] was tested, and the “ERK1 Mass Mod (%)” value was “E (provided a mass modification of ≧70%)”.
With `C=CC(=O)Nc1ccccc1Nc1nc(Nc2cc(C(N)=O)ccc2C(F)(F)F)ncc1Cl` [Compound I-220, 3-((4-((2-acrylamidophenyl)amino)-5-chloropyrimidin-2-yl)amino)-4-(trifluoromethyl)benzamide] the “ERK1 Mass Mod (%)” value was “E (key: E: provided a mass modification of ≧70%; F: provided a mass modification of 31-69%; G: proived a mass modification ≦30%)”.
In the case of `C=CC(=O)Nc1ccccc1Nc1nc(Nc2ccc(N3CCNCC3)cc2OC(F)F)ncc1Cl` [Compound I-142, N-(2-((5-chloro-2-((2-(difluoromethoxy)-4-(piperazin-1-yl)phenyl)amino)pyrimidin-4-yl)amino)phenyl)acrylamide], the “ERK1 Mass Mod (%)” value is reported as “E (provided a mass modification of ≧70%)”.
With `C=CC(=O)Nc1ccccc1Nc1nc(Nc2ccc3c(c2OC)CCCC(=O)N3CCCN2CCOCC2)ncc1C(N)=O` [Compound I-253, 4-((2-acrylamidophenyl)amino)-2-((6-methoxy-1-(3-morpholinopropyl)-2-oxo-2,3,4,5-tetrahydro-1H-benzo[b]azepin-7-yl)amino)pyrimidine-5-carboxamide] the “ERK1 Mass Mod (%)” value was “F (provided a mass modification of 31-69%)”.
`C=CC(=O)Nc1cc(C)ccc1Nc1nc(Nc2nc(OC)ncc2C#N)ncc1C(F)(F)F` [Compound I-346, N-(2-((2-((5-cyano-2-methoxypyrimidin-4-yl)amino)-5-(trifluoromethyl)pyrimidin-4-yl)amino)-5-methylphenyl)acrylamide] was tested, and the “ERK1 Mass Mod (%)” value was “E (provided a mass modification of ≧70%)”.
For `C=CC(=O)Nc1ccccc1Nc1nc(N[C@H]2CC[C@H](C(N)=O)CC2)ncc1Cl` [Compound I-129, trans-4-((4-((2-acrylamidophenyl)amino)-5-chloropyrimidin-2-yl)amino)-cyclohexanecarboxamide], the “ERK1 Mass Mod (%)” value was “E (provided a mass modification of ≧70%)”.
With `C=CC(=O)Nc1ccccc1Oc1nc(Nc2ccc(N3CCC[C@@H]3C(N)=O)cc2OC)ncc1C(N)=O` [Compound I-266, (R)-4-(2-acrylamidophenoxy)-2-((4-(2-carbamoylpyrrolidin-1-yl)-2-methoxyphenyl)amino)pyrimidine-5-carboxamide] the “ERK1 Mass Mod (%)” value was “E (provided a mass modification of ≧70%)”.
In the case of `C=CC(=O)Nc1cc(C)ccc1Nc1nc(Nc2cc(C)nc(OC)c2)ncc1C(F)(F)F` [Compound I-295, N-(2-((2-((2-methoxy-6-methylpyridin-4-yl)amino)-5-(trifluoromethyl)pyrimidin-4-yl)amino)-5-methylphenyl)acrylamide], the “ERK1 Mass Mod (%)” value is reported as “E (provided a mass modification of ≧70%)”.
For `C=CC(=O)Nc1ccccc1Nc1nc(Nc2ccnc(F)c2)ncc1C(F)(F)F` [Compound I-287, N-(2-((2-((2-Fluoropyridin-4-yl)amino)-5-(trifluoromethyl)pyrimidin-4-yl)amino)phenyl)acrylamide], the “ERK1 Mass Mod (%)” value was “E (provided a mass modification of ≧70%)”.
For `C=CC(=O)Nc1ccccc1Nc1nc(NC2CCN(C=O)CC2)ncc1C(F)(F)F` [Compound I-11, N-(2-((2-((1-formylpiperidin-4-yl)amino)-5-(trifluoromethyl)pyrimidin-4-yl)amino)phenyl)acrylamide], the “ERK1 Mass Mod (%)” value was “E (provided a mass modification of ≧70%)”.
In the case of `C=CC(=O)Nc1ccccc1Nc1nc(Nc2ccc(NS(C)(=O)=O)cc2OC)ncc1Cl` [Compound I-185, N-(2-((5-chloro-2-((2-methoxy-4-(methylsulfonamido)phenyl)amino)pyrimidin-4-yl)amino)phenyl)acrylamide], the “ERK1 Mass Mod (%)” value is reported as “E (provided a mass modification of ≧70%)”.
`C=CC(=O)Nc1ccccc1Nc1nc(Nc2ccc(NC(=O)CO)cc2OC)ncc1Cl` [Compound I-186, N-(2-((5-chloro-2-((4-(2-hydroxyacetamido)-2-methoxyphenyl)amino)pyrimidin-4-yl)amino)phenyl)acrylamide] was tested, and the “ERK1 Mass Mod (%)” value was “E (provided a mass modification of ≧70%)”.
`C=CC(=O)Nc1ccccc1Nc1nc(N[C@@H]2CCC[C@H](C(=O)NOCCO)C2)ncc1Cl` (racemic) [Compound I-103, Rac-3-((4-((2-acrylamidophenyl)amino)-5-chloropyrimidin-2-yl)amino)-N-(2-hydroxyethoxy)-cis-cyclohexanecarboxamide] was tested, and the “ERK1 Mass Mod (%)” value was “E (provided a mass modification of ≧70%)”.
For `C=CC(=O)Nc1ccccc1Nc1nc(NC2CCN(C(=O)CCCC(=O)NCCCOCCOCCOCCCNC(=O)CCCC[C@@H]3SC[C@@H]4NC(=O)N[C@@H]43)CC2)ncc1Cl` [Compound I-300, 5-(4-((4-((2-acrylamidophenyl)amino)-5-chloropyrimidin-2-yl)amino)piperidin-1-yl)-5-oxo-N-(15-oxo-19-((3aS,4S,6aR)-2-oxohexahydro-1H-thieno[3,4-d]imidazol-4-yl)-4,7,10-trioxa-14-azanonadecyl)pentanamide], the “ERK1 Mass Mod (%)” value was “E (provided a mass modification of ≧70%)”.
`C=CC(=O)Nc1cc(F)ccc1Nc1nc(N[C@@H]2CCC[C@H](C(N)=O)C2)ncc1Cl` (racemic) [Compound I-112, Rac-cis-3-((4-((2-acrylamido-4-fluorophenyl)amino)-5-chloropyrimidin-2-yl)amino)cyclohexanecarboxamide] was tested, and the “ERK1 Mass Mod (%)” value was “E (provided a mass modification of ≧70%)”.
`C=CC(=O)Nc1ccccc1Nc1nc(N[C@H]2CCC[C@@H](CO)C2)ncc1Cl` (racemic) [Compound I-121, Rac-cis-N-(2-((5-chloro-2-((3-(hydroxymethyl)cyclohexyl)amino)pyrimidin-4-yl)amino)phenyl)acrylamide] was tested, and the “ERK1 Mass Mod (%)” value was “E (key: E: provided a mass modification of ≧70%; F: provided a mass modification of 31-69%; G: proived a mass modification ≦30%)”.
`C=CC(=O)Nc1cc(C)ccc1Nc1nc(Nc2cc(C(=O)NC)c(F)cc2C)ncc1Cl` [Compound I-233, 5-((4-((2-acrylamido-4-methylphenyl)amino)-5-chloropyrimidin-2-yl)amino)-2-fluoro-N,4-dimethylbenzamide] was tested, and the “ERK1 Mass Mod (%)” value was “E (provided a mass modification of ≧70%)”.
With `C=CC(=O)Nc1ccccc1Nc1nc(N[C@H]2CCN(C(=O)OC)C2)ncc1C(F)(F)F` [Compound I-59, (S)-methyl 3-((4-((2-Acrylamidophenyl)amino)-5-(trifluoromethyl)pyrimidin-2-yl)amino)pyrrolidine-1-carboxylate] the “ERK1 Mass Mod (%)” value was “E (provided a mass modification of ≧70%)”.
